In data set [1] the test system is guinea-pig right ventricular muscle. The data set can be described thus: Guinea-pig right ventricular muscle preparation (Vmax of phase 0 of the action potential). It is filed as cell-based, male guinea-pigs. The settings on record: Cavia porcellus; stimulated at 1 Hz; 0 to 3×10^-4 M in modified Tyrodes solution; read-out: EC50 (50% reduction in Vmax). The text has this:
Guinea-pig right ventricular muscle preparation: (Campbell, Brit.J.Pharmac., 1982, 77, 541-548)
Strips of right ventricle excised from male guinea-pigs were electrically stimulated at a frequency of 1 Hz with punctate, bipolar silver wire electrodes.

In data set [2] the test system is aconitine-induced ventricular arrhythmias in anaesthetised rats. The data set can be described thus: animal or person. Format: in vivo, Male Wistar rats. As to conditions: for % decrease in DBP: resting diastolic blood pressure; for amount of aconitine required to elicit ventricular arrhythmia (in words): pretreatment i.v., versus control animals. The method, then:
Male Wistar rats weighing 200-300 g were used. Anaesthesia was induced with a halothane:air mixture and maintained by intravenous administration of a chloralose/pentobarbitone sodium mixture (3 mg/ml pentobarbitone sodium+9.5 mg/ml chloralose) after insertion of a femoral vein cannula. A tracheal cannula was inserted and the animal was respired via a Palmer small animal respiration pump (72 strokes/min and approx 1 ml/100 g). Rectal temperature was thermostatically maintained at 37° C. throughout the experiment. Cannulae were placed in a jugular vein for administration of aconitine and a carotid artery for continuous measurement of blood pressure. Subdermal needle electrodes were inserted for the recording of electrocardiograms throughout the experiment.
When the blood pressure of the animal had stabilised for 10-15 minutes, aconitine (dissolved in distilled water+HCl and diluted in 5% dextrose) was infused via the jugular vein cannula at a rate of 1 μg/min (0.03 mls/min). The total dose of aconitine required to produce ventricular tachycardia or ventricular fibrillation (VT/VF) of at least 1 sec duration was taken as the endpoint of the assay.
Anti-arrhythmic activity was assessed by pretreating animals randomly with drug or vehicle 15 mins prior to aconitine infusion and comparing the dose of aconitine necessary to induce ventricular arrhythmias in treatment groups with that of control groups. The compounds in accordance with the invention were administered as the mesylate or hydrochloride salt prepared immediately before use in a 5% dextrose solution. All drugs were administered via a femoral venous cannula in a dose volume of 0.5 ml.

The next data set has as its system beagle dogs. The data set can be described thus: Toxicity in dogs, daily administration for 14 days. As to conditions: two to three times the effective dose, daily for 14 days.
The next data set can be described thus: Stability of the base. Format: physicochemical. The settings on record: free base.
[3] abbreviates: Rattus norvegicus, iv, 0.25 h, read-out: % increase in aconitine to elicit VT/VF.

With `Cn1nc(-c2cccc(Cl)c2Cl)c(N)nc1=N` [Example 1, 5(3)-Amino-6-(2,3-dichlorophenyl)-2,3(2,5)-dihydro-3(5)-imino-2-methyl-1,2,4-triazine], the IC50 in data set [1] was 130 µM. Moreover, in data set [2] (setting [3]), the change in vivo at 1 mg/kg worked out at 29%. The “% decrease in DBP” value in data set [2] (dose 1 mg/kg (i.v.)) is 11%.
Consider `Cn1nc(-c2cc(Cl)ccc2Cl)c(N)nc1=N` [Example 2, 5(3)-Amino-6-(2,5-dichlorophenyl)-2,3(2,5)-dihydro-3(5)-imino-2-methyl-1,2,4-triazine], for which the change in vivo at 5 mg/kg in data set [2] (setting [3]) was 440%. Besides, the “% decrease in DBP” value in data set [2] (dose 5 mg/kg (i.v.)) stood at 10%.
`CCCCCOc1ccccc1-c1nn(C)c(=N)nc1N` [Example 3, 5(3)-Amino-6-(2-n-pentyloxyphenyl)-2,3(2,5)-dihydro-3(5)-imino-2-methyl-1,2,4-triazine]: the IC50 in data set [1] was 5.9 µM. Besides, the change in vivo at 1 mg/kg in data set [2] (setting [3]) turned out to be 144%. For the same compound, the “% decrease in DBP” value in data set [2] (dose 1 mg/kg (i.v.)) is 8%.
Take `CC(C)n1nc(-c2cccc(Cl)c2Cl)c(N)nc1=N` [Example 4, 5(3)-Amino-6-(2,3-dichlorophenyl)-2,3(2,5)-dihydro-3(5)-imino-2-isopropyl-1,2,4-triazine]: in the data set with beagle dogs, the “toxicity (in words)” value is “No marked toxicity was observed”. For the same compound, in data set [1], the IC50 is 2.2 µM. Besides, the change in vivo at 1 mg/kg in data set [2] (setting [3]) was 490%. Besides, the “% decrease in DBP” value in data set [2] (dose 1 mg/kg (i.v.)) was 13%.
As to `Cn1nc(-c2ccccc2)c(N)nc1=N` [Example 5, 5(3)-Amino-6-phenyl-2,3(2,5)-dihydro-3(5)-imino-2-methyl-1,2,4-triazine], the change in vivo at 5 mg/kg in data set [2] (setting [3]) is 30%. Further, the “% decrease in DBP” value in data set [2] (dose 5 mg/kg (i.v.)) turned out to be 5%.
For `Cn1nc(-c2c(F)cccc2Cl)c(N)nc1=N` [Example 6, 5(3)-Amino-6-(2-chloro-6-fluorophenyl)-2,3(2,5)-dihydro-3(5)-imino-2-methyl-1,2,4-triazine] the same measures were 149% and 1%.
For `Cn1nc(-c2ccccc2I)c(N)nc1=N` [Example 7, 5(3)-Amino-6-(2-iodophenyl)-2,3(2,5)-dihydro-3(5)-imino-2-methyl-1,2,4-triazine] the same measures were 106% and 13%.
On to `COc1ccccc1-c1nn(C)c(=N)nc1N` [Example 8, 5(3)-Amino-6-(2-methoxyphenyl)-2,3(2,5)-dihydro-3(5)-imino-2-methyl-1,2,4-triazine], for which the change in vivo at 10 mg/kg in data set [2] (setting [3]) came to 51%. The “% decrease in DBP” value in data set [2] (dose 10 mg/kg (i.v.)) worked out at 8%.
Regarding `Cn1nc(-c2ccccc2Cl)c(N)nc1=N` [Example 9, 5(3)-Amino-6-(2-chlorophenyl)-2,3(2,5)-dihydro-3(5)-imino-2-methyl-1,2,4-triazine], the change in vivo at 1 mg/kg in data set [2] (setting [3]) was 32%. In addition, the “% decrease in DBP” value in data set [2] (dose 1 mg/kg (i.v.)) came out at 4%.
On the same counts, the results for `CCCn1nc(-c2cccc(Cl)c2Cl)c(N)nc1=N` [Example 10, 5(3)-Amino-6-(2,3-dichlorophenyl)-2,3(2,5)-dihydro-3(5)-imino-2-n-propyl-1,2,4-triazine] are 225% and 3%.
On the same counts, the results for `Cn1nc(-c2ccc(Cl)cc2Cl)c(N)nc1=N` [Example 11, 5(3)-Amino-6-(2,4-dichlorophenyl)-2,3(2,5)-dihydro-3(5)-imino-2-methyl-1,2,4-triazine] are 33% and 7%.
For `N=c1nc(N)c(-c2cccc(Cl)c2Cl)nn1Cc1ccccc1` [Example 12, 5(3)-Amino-6-(2,3-dichlorophenyl)-2,3(2,5)-dihydro-3(5)-imino-2-benzyl-1,2,4-triazine] the same measures were 14% and 5%.
Regarding `Cn1nc(-c2cc(Cl)cc(Cl)c2Cl)c(N)nc1=N` [Example 13, 5(3)-Amino-6-(2,3,5-trichlorophenyl)-2,3(2,5)-dihydro-3(5)-imino-2-methyl-1,2,4-triazine], the change in vivo at 1 mg/kg in data set [2] (setting [3]) was 246%. The “% decrease in DBP” value in data set [2] (dose 1 mg/kg (i.v.)) worked out at 1%.
Take `CCCCCOc1ccc(-c2nn(C)c(=N)nc2N)cc1` [Example 14, 5(3)-Amino-6-(4-n-pentyloxyphenyl)-2,3(2,5)-dihydro-3(5)-imino-2-methyl-1,2,4-triazine]: the change in vivo at 1 mg/kg in data set [2] (setting [3]) turned out to be 8%. In addition, in data set [2] (dose 1 mg/kg (i.v.)), the “% decrease in DBP” value worked out at 2%.
For `CCCc1ccccc1-c1nn(C)c(=N)nc1N` [Example 15, 5(3)-Amino-6-(2-n-propylphenyl)-2,3(2,5)-dihydro-3(5)-imino-2-methyl-1,2,4-triazine] the same measures were 12% and 5%.
On the same counts, the results for `CCCOc1ccccc1-c1nn(C)c(=N)nc1N` [Example 16, 5(3)-Amino-6-(2-n-propyloxyphenyl)-2,3(2,5)-dihydro-3(5)-imino-2-methyl-1,2,4-triazine] are 15% and 3%.
For `CCCCCCCOc1ccccc1-c1nn(C)c(=N)nc1N` [Example 17, 5(3)-Amino-6-(2-n-heptyloxyphenyl)-2,3(2,5)-dihydro-3(5)-imino-2-methyl-1,2,4-triazine] the same measures were 154% and 3%.
On to `CCCCCn1nc(-c2cccc(Cl)c2Cl)c(N)nc1=N` [Example 18, 5(3)-Amino-6-(2,3-dichlorophenyl)-2,3(2,5)-dihydro-3(5)-imino-2-n-pentyl-1,2,4-triazine], for which the “stability of the base (in words)” value in “Stability of the base” is recorded as “unstable”. Moreover, the change in vivo at 1 mg/kg in data set [2] (setting [3]) was 46%. In data set [2] (dose 1 mg/kg (i.v.)), the “% decrease in DBP” value is given as 1%.
`CCN(CC)CC(=O)Nc1c(C)cccc1C` [Lidocaine, reference compound]: in data set [2] (setting [3]), the change in vivo at 10 mg/kg was 44%. The “% decrease in DBP” value in data set [2] (dose 10 mg/kg (i.v.)) is 1%. For the same compound, in data set [2], the “amount of aconitine required to elicit ventricular arrhythmia (in words)” value (“amount of aconitine required” below) is recorded as “increased the amount of aconitine required to elicit the same ventricular arrhythmia”.
For `O=C1NC(=O)C(c2ccccc2)(c2ccccc2)N1` [Phenytoin, reference compound] the same measures were 19%, 4% and “increased the amount of aconitine required to elicit the same ventricular arrhythmia”.
`CCN(CC)CCNC(=O)c1ccc(N)cc1` [Procainamide, reference compound]: in data set [2] (setting [3]), the change in vivo at 20 mg/kg amounted to 11%. Moreover, the “% decrease in DBP” value in data set [2] (dose 20 mg/kg (i.v.)) was 22%. The “amount of aconitine required” value in data set [2] is listed as “increased the amount of aconitine required to elicit the same ventricular arrhythmia”.
`CC(C)NCC(O)COc1cccc2ccccc12` (centres unmarked) [Propranolol, reference compound]: the change in vivo at 1 mg/kg in data set [2] (setting [3]) was 51%. Further, in data set [2] (dose 1 mg/kg (i.v.)), the “% decrease in DBP” value was found to be 0%. In data set [2], the “amount of aconitine required” value was “increased the amount of aconitine required to elicit the same ventricular arrhythmia”.
On to `C=C[C@H]1C[N@@]2CC[C@H]1C[C@@H]2[C@@H](O)c1ccnc2ccc(OC)cc12` [Quinidine, reference compound], for which the change in vivo at 10 mg/kg in data set [2] (setting [3]) turned out to be 8%. Moreover, in data set [2] (dose 10 mg/kg (i.v.)), the “% decrease in DBP” value is given as 43%. Also, the “amount of aconitine required” value in data set [2] is recorded as “increased the amount of aconitine required to elicit the same ventricular arrhythmia”.
Turning to `COc1ccc(CCN(C)CCCC(C#N)(c2ccc(OC)c(OC)c2)C(C)C)cc1OC` (centres unmarked) [Verapamil, reference compound], the change in vivo at 1 mg/kg in data set [2] (setting [3]) is 84%. Also, in data set [2] (dose 1 mg/kg (i.v.)), the “% decrease in DBP” value was determined as 68%. For the same compound, in data set [2], the “amount of aconitine required” value was “increased the amount of aconitine required to elicit the same ventricular arrhythmia”.

The values above are taken from patent publication US4649139A, “1,2,4-triazines” (Burroughs Wellcome Co., priority 1983, dated 1987).
